In ChEMBL document CHEMBL1201862, “PubChem BioAssay data set” (2004):
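Five concentrations, 48 hours, 96-well plates. The concentration for 50% growth inhibition is given as GI50.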 The source made the active and inactive calls. Cut-off read from the data, not from the text of the source: active = GI50 up to about 1.1 µM and inactive = higher.

Key:
Experiment in all cases: NCI tumour cell line growth inhibition, 48 h
DLD-1 = tested on: DLD-1
DMS-114 = tested on: DMS-114
KM-20L2 = tested on: KM-20L2
LXFL 529 = tested on: LXFL 529
M19-MEL = tested on: M19-MEL
SNB-78 = tested on: SNB-78
XF498 = tested on: XF498
HOP-18 = tested on: HOP-18
RXF 631 = tested on: RXF 631

| SMILES | GI50 (DLD-1) | GI50 (DMS-114) | GI50 (KM-20L2) | GI50 (LXFL 529) | GI50 (M19-MEL) | GI50 (SNB-78) | GI50 (XF498) | GI50 (HOP-18) | GI50 (RXF 631) |
| --- | --- | --- | --- | --- | --- | --- | --- | --- | --- |
| O=C(CSC(=S)N1CCOCC1)Nc1nc2c(s1)CCCC2 | > 100 µM (inactive) | 30.1 µM (inactive) | > 100 µM (inactive) | > 100 µM (inactive) | 92.5 µM (inactive) | > 100 µM (inactive) | 50.1 µM (inactive) | – | – |
| CCOc1ccc(NC(=O)CC2SC(Nc3ccc(Cl)cc3)=NC2=O)cc1 (configuration not stated) | 36 µM (inactive) | > 100 µM (inactive) | > 100 µM (inactive) | 41.8 µM (inactive) | > 100 µM (inactive) | – | > 100 µM (inactive) | > 100 µM (inactive) | > 100 µM (inactive) |
| Oc1ccc2c(c1)CC[N+]1=C2CCC2CCCC21 (configuration not stated) [QUINDONIUM BROMIDE] | > 100 µM (inactive) | > 100 µM (inactive) | – | > 100 µM (inactive) | > 100 µM (inactive) | – | – | – | – |
| NCCSCC(N)C(=O)O (configuration not stated) | > 497 µM (inactive) | > 497 µM (inactive) | > 497 µM (inactive) | > 497 µM (inactive) | > 497 µM (inactive) | > 497 µM (inactive) | > 497 µM (inactive) | – | – |
| O=c1ccc2ccc(O)c3c4c(O)ccc5ccc(=O)c(c1c23)c54 | 1.64 µM (inactive) | 1.51 µM (inactive) | – | – | 0.69 µM (active) | – | 1.79 µM (inactive) | 2.26 µM (inactive) | – |
| O=C(NC(=O)c1c(Cl)nc2sccn12)Nc1ccc(Cl)cc1 | > 48.3 µM (inactive) | > 71.3 µM (inactive) | > 100 µM (inactive) | – | > 100 µM (inactive) | 43.1 µM (inactive) | 17.9 µM (inactive) | – | > 79.4 µM (inactive) |
| O=C(N/C(=C\c1ccc(Br)cc1)c1nc2ccccc2s1)c1ccccc1 | 46.9 µM (inactive) | 46.5 µM (inactive) | > 100 µM (inactive) | 54.5 µM (inactive) | 70.3 µM (inactive) | > 100 µM (inactive) | > 100 µM (inactive) | > 100 µM (inactive) | 87.3 µM (inactive) |
| C=C1C(=O)OC2(C)C3CCC(C3)C12 (configuration not stated) | 51.1 µM (inactive) | 46.6 µM (inactive) | 45.1 µM (inactive) | – | 44.8 µM (inactive) | 34.4 µM (inactive) | 29.1 µM (inactive) | > 100 µM (inactive) | – |
| O=c1/c(=C/c2ccc3c(c2)OCO3)sc2nnc(Cc3ccccc3)n12 | > 100 µM (inactive) | > 100 µM (inactive) | > 100 µM (inactive) | > 100 µM (inactive) | > 100 µM (inactive) | > 100 µM (inactive) | – | 88.1 µM (inactive) | – |
| COC(=O)[C@H]1CC(=O)C=C2CCCC21 (some centres not stated) | > 100 µM (inactive) | > 100 µM (inactive) | – | > 100 µM (inactive) | > 100 µM (inactive) | – | > 100 µM (inactive) | – | > 100 µM (inactive) |
| C=CCC1(C)CCCCC1(O)C[S+]([O-])c1ccccc1 (configuration not stated) | > 100 µM (inactive) | > 100 µM (inactive) | > 100 µM (inactive) | – | > 100 µM (inactive) | > 100 µM (inactive) | – | > 100 µM (inactive) | > 100 µM (inactive) |
| CCOc1ccc(N2C(=O)C3c4[nH]c5ccccc5c4C4CCC(C(C)(C)C)CC4C3C2=O)cc1 (configuration not stated) | 88.9 µM (inactive) | 50 µM (inactive) | 77.8 µM (inactive) | > 100 µM (inactive) | – | 90.2 µM (inactive) | > 100 µM (inactive) | > 100 µM (inactive) | – |
| C1=NN(Cc2ccccc2)C(N(Cc2ccccc2)Cc2ccccc2)N1 (configuration not stated) | 21.1 µM (inactive) | 12.7 µM (inactive) | 14.1 µM (inactive) | 12.1 µM (inactive) | 17.5 µM (inactive) | 29.6 µM (inactive) | – | 23.3 µM (inactive) | 16.1 µM (inactive) |
| O=C(N/N=C1/C(=O)N(c2ccc(Cl)cc2Cl)C(=O)C(=O)C1c1nc2ccccc2o1)c1ccccc1O (configuration not stated) | 33 µM (inactive) | 26.4 µM (inactive) | > 100 µM (inactive) | 37.6 µM (inactive) | 38.3 µM (inactive) | – | 20.4 µM (inactive) | – | – |
| CCCCCCCCCCCCC(SCCNC(=O)CCNC(=O)C(O)C(C)(C)COP(=O)(O)OP(=O)(O)OCC1OC(n2cnc3c(N)ncnc32)C(O)C1OP(=O)(O)O)C(=O)NCC(N)=O (configuration not stated) | > 100 µM (inactive) | 95.1 µM (inactive) | > 100 µM (inactive) | > 100 µM (inactive) | > 100 µM (inactive) | – | – | 37.8 µM (inactive) | > 100 µM (inactive) |
